Experimental data taken from patent US20230039836A1, “AROMATIC SULPHONAMIDES DERIVATIVES THAT INHIBITS PDI A3, THEIR SYNTHESIS AND USE” (Uniwersytet Jagiellonski, priority 2020, published 2023).

Assays:
PDI A1 = target: T1, PDI A1 (Homo sapiens, UniProt P07237); test: Insulin turbidometric assay, inhibition of PDI A1; type: biochemical; settings: insulin reduction, turbidity at 650 nm, 60 min incubation at 37° C.; read-out: Inhibition of PDI A1 (EC 50)
T1 construct: purchased Mybiosource; host or cells: E. coli
Procedure: The inhibitory effects compounds of invention on activity of PDI A1 was assess based on the insulin turbidometric assay. Enzymatic activity of PDIA1 was confirmed by measuring the turbidity increase at 650 nm due to insulin reduction. The assay mixture was prepared by addition 10 ug/ml PDIA1 (E.coli recombinant protein; Mybiosource), 0.1 mM phosphate buffer (pH7.6), 1 mM EDTA, 0.087 mM DTT and with or without tested compound and was incubated for 60 min, at 37° C. Reaction was started by addition insulin and DTT. Final concentration of insulin and DTT in assay mixture was 0.15 mM and 0.174 mM, respectively. Turbidity was detected at 650 nm against reference samples without PDI A1s. The measurements were performed at 650 nm using 120-s recordings.

[1] = system: Caco-2 (human colon adenocarcinoma); test: MTT antiproliferative assay, 48 h; type: cell-based; settings: Homo sapiens, Caco-2, 48-hour exposition, read-out: Cytotoxicity, IC50, µM CaCo-2
Procedure: (§1) About 2000-4000 cells per well (depending on line nature) were placed in 96-well plates and after 24 h compounds were added to the wells. Untreated cells were used as a control. The plates were incubated for 48 h, 37° C., 5% CO2. The number of surviving cells was determined using 3-(4,5-dimethylthiazol-2-yl)-2,5-diphenyltetrazolinium bromide (MTT). MTT-test: after incubating culture medium was removed and 200 µL fresh medium with 20 µL MTT (2 mg/mL in HBSS) was added in each well of the plate. After incubation (3 hr., 37° C., 5% CO2), the medium with MTT was removed and 200 µL DMSO were added at once to each sample. The samples were tested at 540 nm on Thermo Scientific Multiskan EX microplate photometer. The half-maximal inhibitory concentration (IC50) of each compound was calculated using Graph Pad Prism® 3.0.

[2] = system: HT-1080 (human fibrosarcoma); test: MTT antiproliferative assay, 48 h; type: cell-based; settings: 48-hour exposition, read-out: Cytotoxicity, IC50, µM HT-1080
Procedure: as §1

[3] = system: MCF-7 (human breast adenocarcinoma, estrogen-positive); test: MTT antiproliferative assay, 48 h; type: cell-based; settings: Homo sapiens, MCF7, 48-hour exposition, read-out: Cytotoxicity, IC50, µM MCF-7
Procedure: as §1

[4] = system: MDA-MB-231 (human mammary breast adenocarcinoma); test: MTT antiproliferative assay, 48 h; type: cell-based; settings: Homo sapiens, MDA-MB-231, 48-hour exposition, read-out: Cytotoxicity, IC50, µM MDA-MB-231
Procedure: as §1

[5] = system: Lewis Lung Carcinoma (LLC); test: Murine model of Lewis Lung Carcinoma; type: in vivo, mice; settings: in vivo, FIG. 5; for Effect on animal weight: no evident toxicity
Procedure: To confirm anticancer activity of selected compounds of invention, PDI A1-inhibitors in vivo, selected compounds of invention were tested in the murine model of Lewis Lung Carcinoma (LLC). The Lewis Lung Carcinoma (LLC) cell line was obtained from the ATCC collection and was cultured in a humidified atmosphere of 5% CO2 at 37° using Dulbecco’s modified Eagle’s medium (DMEM) that contained 10% bovine serum (Sigma). Female (6-8 weeks old) C57BL/6 mice (purchased from Envigo RMS. BV., Nederland) were acclimated for one week and were fed with animal chow and water ad libitum. The C57BL/6 mice were injected s.c. with 0.5 × 10^5 LLC cells per mice in 100 µL PBS. Compounds were dissolved in DMSO and then 0.9% NaCl (DMSO final concentration 1%) were added. In each treatment group, i.p. injections of 100 µl compound were started on 1 day after tumor inoculation. Control animals injected with equal volume of 0.9% NaCl with 1% DMSO administered in the same schedule as other groups. Tumor larger radius (a) and smaller radius (b) were measured by calipers. The tumor volume (Tv) was calculated according the following formulaTv = V=4 • ab2/3. The mice in control group were sacrificed 17 days after tumor establishment. Tumor tissues were dissected, weighed and frozen in OCT compound.

T1 sequence (P07237 18-508, species assumed): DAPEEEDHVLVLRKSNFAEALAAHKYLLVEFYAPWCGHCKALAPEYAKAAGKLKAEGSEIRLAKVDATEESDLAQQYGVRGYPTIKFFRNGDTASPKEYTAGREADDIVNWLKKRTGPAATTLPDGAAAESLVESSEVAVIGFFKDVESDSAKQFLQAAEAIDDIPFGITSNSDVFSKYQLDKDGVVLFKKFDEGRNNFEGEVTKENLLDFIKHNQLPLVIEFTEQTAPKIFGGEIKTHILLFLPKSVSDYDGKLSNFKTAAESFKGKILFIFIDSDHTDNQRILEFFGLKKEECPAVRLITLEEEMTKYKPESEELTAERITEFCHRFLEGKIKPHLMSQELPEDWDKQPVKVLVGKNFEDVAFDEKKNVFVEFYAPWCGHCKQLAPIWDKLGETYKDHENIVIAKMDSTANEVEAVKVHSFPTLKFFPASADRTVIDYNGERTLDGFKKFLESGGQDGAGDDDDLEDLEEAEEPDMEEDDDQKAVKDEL

EC50 (PDI A1) [µM] | Structure (SMILES) | IC50 [1] [µM] | IC50 [3] [µM] | IC50 [4] [µM] | further results
> 200 | Cc1ccc(S(=O)(=O)N2CC2C(N)=O)cc1 (stereo not drawn) [Compound C-3220, 1-(p-Tolylsulfonyl)aziridine-2-carboxamide] |  |  |  | 
0.5 | COC(=O)C1CN1S(=O)(=O)c1ccc(C(F)(F)F)cc1 (stereo not drawn) [Compound C-3256, Methyl 1-[4-(trifluoromethyl)phenyl]sulfonylaziridine-2-carboxylate] |  |  |  | 
0.8 | CCCCCCCCCCCCc1ccc(S(=O)(=O)N2CC2C(=O)OC)cc1 (stereo not drawn) [Compound C-3270, Methyl 1-(4-dodecylphenyl)sulfonylaziridine-2-carboxylate] |  |  |  | 
 | CCCCCc1ccc(S(=O)(=O)N2CC2C(=O)OC)cc1 (stereo not drawn) [Compound C-3281, Methyl 1-(4-pentylphenyl)sulfonylaziridine-2-carboxylate] |  |  |  | Effect on tumour volume [5]: diminished tumour volume; Effect on animal weight [5]: did not modified animal weight
0.4 | CCCCCCCc1ccc(S(=O)(=O)N2CC2C(=O)OC)cc1 (stereo not drawn) [Compound C-3288, Methyl 1-(4-heptylphenyl)sulfonylaziridine-2-carboxylate] |  |  |  | 
0.4 | COC(=O)C1CN1S(=O)(=O)c1ccc(C(C)(C)C)cc1 (stereo not drawn) [Compound C-3290, Methyl 1-(4-tert-butylphenyl)sulfonylaziridine-2-carboxylate] |  | 29 ± 4 |  | 
0.4 | COC(=O)C1CN1S(=O)(=O)c1ccc(-c2ccccc2)cc1 (stereo not drawn) [Compound C-3291, Methyl 1-(4-phenylphenyl)sulfonylaziridine-2-carboxylate] |  |  |  | 
0.8 | CCCc1ccc(S(=O)(=O)N2CC2C(=O)OC)cc1 (stereo not drawn) [Compound C-3299, Methyl 1-(4-propylphenyl)sulfonylaziridine-2-carboxylate] |  |  |  | 
18 | COC(=O)C1CN1S(=O)(=O)c1ccc(NC(C)=O)cc1 (stereo not drawn) [Compound C-3308, Methyl 1-(4-acetamidophenyl)sulfonylaziridine-2-carboaylate] | 100 ± 5 | 485 ± 32 | > 500 | IC50 [2]: 120 ± 6 µM
5 | COC(=O)C1CN1S(=O)(=O)c1cccc2ccccc12 (stereo not drawn) [Compound C-3311, Methyl 1-(1-naphthylsulfonyl)aziridine-2-carboxylate] |  |  |  | 
 | COC(=O)C1CN1S(=O)(=O)c1ccccc1C (stereo not drawn) [Compound C-3320, Methyl 1-(o-tolylsulfonyl)aziridine-2-carboxylate] |  |  | 380 ± 15 | 
 | NC(=O)C1CN1S(=O)(=O)c1ccc(C(F)(F)F)cc1 (stereo not drawn) [Compound C-3324, 1-[4-(Trifluoromethyl)phenyl] sulfonylaziridine-2-carboxamide] | 27 ± 3 | 156 ± 9 | 102 ± 12 | IC50 [2]: 510 ± 3 µM
 | COC(=O)C1CN1S(=O)(=O)c1ccc2cc(OC)ccc2c1 (stereo not drawn) [Compound C-3327, Methyl 1-[(6-methoxy-2-naphthyl)sulfonyl]aziridine-2-carboxylate] | 150 ± 10 |  |  | 
 | COC(=O)C1CN1S(=O)(=O)c1ccc2cc(C)ccc2c1 (stereo not drawn) [Compound C-3329, Methyl 1-[(6-methyl-2-naphthyl)sulfonyl]aziridine-2-carboxylate] |  |  |  | Effect on tumour volume [5]: diminished tumour volume; Effect on animal weight [5]: did not modified animal weight
> 200 | COC(=O)C1CN1S(=O)(=O)c1ccco1 (stereo not drawn) [Compound C-3346, Methyl 1-(2-furylsulfonyl)aziridine-2-carboxylate] | 17 ± 2 | 458 ± 6 | > 200 | IC50 [2]: 169 ± 11 µM
 | CN(C)C(=O)C1CN1S(=O)(=O)c1ccc(N(C)C)cc1 (stereo not drawn) [Compound C-3357, 1-[4-(Dimethylamino)phenyl] sulfonyl-N,N-dimethyl-aziridine-2-carboxamide] | 61 ± 3 | 295 ± 9 | 25 ± 6 | IC50 [2]: 30 ± 1 µM
0.5 | CCCCc1ccc(S(=O)(=O)N2CC2C(=O)N(C)C)cc1 (stereo not drawn) [Compound C-3362, 1-(4-Butylphenyl)sulfonyl-N,N-dimethyl-aziridine-2-carboxamide] |  |  |  | 
0.04 | CCCCCCc1ccc(S(=O)(=O)N2CC2C(=O)N(C)C)cc1 (stereo not drawn) [Compound C-3369, 1-(4-Hexylphenyl)sulfonyl-N,N-dimethyl-aziridine-2-carboxamide] |  |  |  | 
 | CN(C)C(=O)C1CN1S(=O)(=O)c1cccc2cc(N(C)C)ccc12 (stereo not drawn) [Compound C-3377, 1-[[6-(Dimethylamino)-1-naphthyl]sulfonyl]-N,N-dimethylaziridine-2-carboxamide] |  | 4.8 ± 0.1 |  | 
0.7 | CN(C)C(=O)C1CN1S(=O)(=O)c1ccc(N(C)C)c2ccccc12 (stereo not drawn) [Compound C-3385, 1-[[4-(Dimethylamino)-1-naphthyl]sulfonyl] -N,N-dimethylaziridine-2-carboxamide] |  |  |  | 
 | COC(=O)C1CN1S(=O)(=O)c1ccc2cc(N(C)C)ccc2c1 (stereo not drawn) [Compound C-3397, Methyl 1-[[6-(dimethylamino)-2-naphthyl]sulfonyl]aziridine-2-carboxylate] |  |  | 38 ± 2 | 
12.3 | CN(C)C(=O)C1CN1S(=O)(=O)c1ccc(F)cc1F (stereo not drawn) [Compound C-3403, 1-(2,4-Difluorophenyl)sulfonyl-N,N-dimethyl-aziridine-2-carboxamide] |  |  |  | 
 | CCCCCCc1ccc(S(=O)(=O)N2CC2C(=O)N2CCOCC2)cc1 (stereo not drawn) [Compound C-3517, [1-(4-Hexylphenyl)sulfonylaziridin-2-yl]-morpholino-methanone] |  |  | 12 ± 1 | 
11 | CC(C)(C)c1ccc(S(=O)(=O)N2CC2C(N)=O)cc1 (stereo not drawn) [Compound C-3591, 1-(4-tert-Butylphenyl)sulfonylaziridine-2-carboxamide] |  |  |  | 
26 | CN(C)C(=O)C1CN1S(=O)(=O)c1ccc(C(C)(C)C)cc1 (stereo not drawn) [Compound C-3594, 1-(4-tert-Butylphenyl)sulfonyl-N,N-dimethyl-aziridine-2-carboxamide] |  |  |  | 
54.4 | Cc1ccc(S(=O)(=O)N2CC2C(=O)O)cc1 (stereo not drawn) [Compound C-3612, Lithium 1-tosylaziridine-2-carboxylate] |  |  |  | 

Structure (SMILES) | EC50 (PDI A1) [µM] | IC50 [1] [µM] | IC50 [3] [µM] | IC50 [4] [µM] | further results
Cc1ccc(S(=O)(=O)N2CC2C=O)cc1 (stereo not drawn) [Compound C-3262, 1-(p-Tolylsulfonyl)aziridine-2-carbaldehyde] | 160 | 13.5 ± 0.8 | 7.2 ± 0.8 | 6.8 ± 0.8 | IC50 [2]: 3.8 ± 0.3 µM
CC(=O)C1CN1S(=O)(=O)c1ccc(C)cc1 (stereo not drawn) [Compound C-3263, 1-[1-(p-Tolylsulfonyl)aziridin-2-yl]ethanone] | 140 | 29 ± 0.8 | 17 ± 0.2 | 9.1 ± 0.5 | IC50 [2]: 7.6 ± 0.2 µM
CCCCOc1ccc(S(=O)(=O)N2CC2C(=O)OC)cc1 (stereo not drawn) [Compound C-3271, Methyl 1-(4-butoxyphenyl)sulfonylaziridine-2-carboxylate] | 1 |  |  |  | 
CCCCc1ccc(S(=O)(=O)N2CC2C(C)=O)cc1 (stereo not drawn) [Compound C-3272, 1-[1-(4-Butylphenyl)sulfonylaziridin-2-yl] ethanone] | 0.5 | 57 ± 6 | 26 ± 0.4 | 8.4 ± 0.9 | IC50 [2]: 4.5 ± 0.9 µM
CCCCc1ccc(S(=O)(=O)N2CC2C=O)cc1 (stereo not drawn) [Compound C-3273, 1-(4-Butylphenyl)sulfonylaziridine-2-carbaldehyde] | 3 | 56 ± 12 | 92 ± 2 | 35 ± 3 | IC50 [2]: 31 ± 0.9 µM
Cc1ccc(S(=O)(=O)N2CC2C#N)cc1 (stereo not drawn) [Compound C-3314, 1-(p-Tolylsulfonyl)aziridine-2-carbonitrile] | 4.1 | 14 ± 0.8 | 206 ± 21 | 104 ± 3 | IC50 [2]: 4.5 ± 1 µM
